Usually inhibition stands for the drop in the measured response relative to a control, in per cent.

Each structure is given as a SMILES string.

Assay in all cases: Kinase panel study
Holding throughout (format): biochemical
Common to all, as to conditions: read-out: Percentage of inhibition; for inhibition at 1 µM: 1000nM; for inhibition at 10 µM: 10000nM

For one assay, the target named is T1, AURKB (Aurora B) (Homo sapiens, UniProt Q96GD4).
T1 construct: purchased Thermo Fisher Scientific
In a few lines: (§1)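 Inhibition was measured in an outsourced in vitro kinase panel using the ZLyte or Adapta format under the provider's standard procedures. Values are percent inhibition at 10 µM or 1 µM compound, and IC50s were also obtained.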

Another assay deals with T2, PLK3 (Homo sapiens, UniProt Q9H4B4).
T2 construct: purchased Thermo Fisher Scientific
A digest of the protocol:
as §1

The target in a further assay is T3, MAPK12 (p38 gamma) (Homo sapiens, UniProt P53778).
T3 construct: purchased Thermo Fisher Scientific
T3 sequence (P53778 1-367): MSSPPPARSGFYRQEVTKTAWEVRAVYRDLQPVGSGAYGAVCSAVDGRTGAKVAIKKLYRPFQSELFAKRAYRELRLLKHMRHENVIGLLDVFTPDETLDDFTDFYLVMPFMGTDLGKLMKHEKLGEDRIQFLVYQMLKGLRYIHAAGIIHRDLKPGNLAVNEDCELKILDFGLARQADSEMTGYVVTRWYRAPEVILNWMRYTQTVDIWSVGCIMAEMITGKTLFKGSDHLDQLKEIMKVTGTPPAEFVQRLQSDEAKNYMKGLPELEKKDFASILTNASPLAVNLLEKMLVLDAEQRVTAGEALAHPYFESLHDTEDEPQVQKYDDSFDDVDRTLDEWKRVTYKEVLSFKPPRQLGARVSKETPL
A digest of the protocol:
as §1

The next assay addresses T4, EPHB1 (Homo sapiens, UniProt P54762).
T4 construct: purchased Thermo Fisher Scientific
T4 sequence (P54762 18-984): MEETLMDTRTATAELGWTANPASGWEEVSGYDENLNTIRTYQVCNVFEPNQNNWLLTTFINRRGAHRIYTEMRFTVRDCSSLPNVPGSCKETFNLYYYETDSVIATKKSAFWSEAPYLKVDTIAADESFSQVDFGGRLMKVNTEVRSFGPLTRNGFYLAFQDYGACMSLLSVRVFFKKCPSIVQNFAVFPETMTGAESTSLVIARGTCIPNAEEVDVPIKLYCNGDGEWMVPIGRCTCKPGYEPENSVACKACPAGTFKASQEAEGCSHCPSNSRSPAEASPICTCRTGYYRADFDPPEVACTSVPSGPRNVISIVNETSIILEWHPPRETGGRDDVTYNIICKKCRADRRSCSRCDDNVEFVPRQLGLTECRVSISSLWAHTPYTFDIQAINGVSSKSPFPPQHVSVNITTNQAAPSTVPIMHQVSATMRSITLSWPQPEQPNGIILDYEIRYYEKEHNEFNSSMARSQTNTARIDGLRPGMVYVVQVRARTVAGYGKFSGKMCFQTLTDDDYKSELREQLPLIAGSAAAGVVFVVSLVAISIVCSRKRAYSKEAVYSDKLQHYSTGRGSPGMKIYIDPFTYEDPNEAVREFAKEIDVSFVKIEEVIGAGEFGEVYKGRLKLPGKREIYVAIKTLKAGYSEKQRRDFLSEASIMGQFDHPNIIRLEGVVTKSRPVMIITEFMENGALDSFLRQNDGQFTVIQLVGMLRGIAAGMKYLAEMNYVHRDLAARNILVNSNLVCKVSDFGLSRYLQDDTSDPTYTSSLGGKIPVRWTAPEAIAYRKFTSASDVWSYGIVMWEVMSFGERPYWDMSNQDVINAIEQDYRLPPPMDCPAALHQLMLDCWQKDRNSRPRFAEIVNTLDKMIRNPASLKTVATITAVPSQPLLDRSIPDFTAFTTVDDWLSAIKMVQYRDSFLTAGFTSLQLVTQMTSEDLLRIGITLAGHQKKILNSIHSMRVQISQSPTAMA
A digest of the protocol: as §1

The target of a further assay is T5, MST1R (RON) (Homo sapiens, UniProt Q04912).
T5 construct: purchased Thermo Fisher Scientific
A digest of the protocol: as §1

Another assay deals with T6, LRRK2 G2019S FL (Homo sapiens, UniProt Q5S007, G2019S).
T6 construct: LRRK2 G2019S FL; purchased Thermo Fisher Scientific
In a few lines: as §1

For a further assay, the target named is T7, EPHA5 (Homo sapiens, UniProt P54756).
T7 construct: purchased Thermo Fisher Scientific
In a few lines:
as §1

T1 sequence (Q96GD4 whole entry): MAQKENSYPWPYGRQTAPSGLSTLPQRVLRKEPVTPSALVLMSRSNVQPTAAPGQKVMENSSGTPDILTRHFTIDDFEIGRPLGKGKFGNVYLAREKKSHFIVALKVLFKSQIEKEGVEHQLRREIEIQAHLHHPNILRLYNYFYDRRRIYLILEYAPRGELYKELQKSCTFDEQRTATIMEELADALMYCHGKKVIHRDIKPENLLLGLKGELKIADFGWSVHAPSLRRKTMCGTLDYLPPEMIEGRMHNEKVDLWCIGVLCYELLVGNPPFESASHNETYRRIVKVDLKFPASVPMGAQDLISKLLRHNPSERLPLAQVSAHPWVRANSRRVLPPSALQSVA
T2 sequence (Q9H4B4 whole entry): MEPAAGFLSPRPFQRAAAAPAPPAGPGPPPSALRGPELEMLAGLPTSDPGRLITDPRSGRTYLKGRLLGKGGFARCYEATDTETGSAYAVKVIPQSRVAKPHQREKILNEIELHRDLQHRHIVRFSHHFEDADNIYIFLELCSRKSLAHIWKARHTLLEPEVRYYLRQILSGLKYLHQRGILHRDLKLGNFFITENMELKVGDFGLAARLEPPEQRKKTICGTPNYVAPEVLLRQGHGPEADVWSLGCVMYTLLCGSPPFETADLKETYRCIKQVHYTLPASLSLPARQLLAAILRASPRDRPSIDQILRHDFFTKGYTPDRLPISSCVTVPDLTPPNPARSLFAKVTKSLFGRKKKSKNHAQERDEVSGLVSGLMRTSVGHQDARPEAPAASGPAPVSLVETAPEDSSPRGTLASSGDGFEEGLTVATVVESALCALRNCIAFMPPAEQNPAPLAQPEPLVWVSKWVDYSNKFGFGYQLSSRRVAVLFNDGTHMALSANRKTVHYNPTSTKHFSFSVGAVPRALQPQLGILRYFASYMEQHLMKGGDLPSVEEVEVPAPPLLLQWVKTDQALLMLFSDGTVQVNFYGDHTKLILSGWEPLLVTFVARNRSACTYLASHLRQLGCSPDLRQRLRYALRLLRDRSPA
T5 sequence (Q04912 25-1400): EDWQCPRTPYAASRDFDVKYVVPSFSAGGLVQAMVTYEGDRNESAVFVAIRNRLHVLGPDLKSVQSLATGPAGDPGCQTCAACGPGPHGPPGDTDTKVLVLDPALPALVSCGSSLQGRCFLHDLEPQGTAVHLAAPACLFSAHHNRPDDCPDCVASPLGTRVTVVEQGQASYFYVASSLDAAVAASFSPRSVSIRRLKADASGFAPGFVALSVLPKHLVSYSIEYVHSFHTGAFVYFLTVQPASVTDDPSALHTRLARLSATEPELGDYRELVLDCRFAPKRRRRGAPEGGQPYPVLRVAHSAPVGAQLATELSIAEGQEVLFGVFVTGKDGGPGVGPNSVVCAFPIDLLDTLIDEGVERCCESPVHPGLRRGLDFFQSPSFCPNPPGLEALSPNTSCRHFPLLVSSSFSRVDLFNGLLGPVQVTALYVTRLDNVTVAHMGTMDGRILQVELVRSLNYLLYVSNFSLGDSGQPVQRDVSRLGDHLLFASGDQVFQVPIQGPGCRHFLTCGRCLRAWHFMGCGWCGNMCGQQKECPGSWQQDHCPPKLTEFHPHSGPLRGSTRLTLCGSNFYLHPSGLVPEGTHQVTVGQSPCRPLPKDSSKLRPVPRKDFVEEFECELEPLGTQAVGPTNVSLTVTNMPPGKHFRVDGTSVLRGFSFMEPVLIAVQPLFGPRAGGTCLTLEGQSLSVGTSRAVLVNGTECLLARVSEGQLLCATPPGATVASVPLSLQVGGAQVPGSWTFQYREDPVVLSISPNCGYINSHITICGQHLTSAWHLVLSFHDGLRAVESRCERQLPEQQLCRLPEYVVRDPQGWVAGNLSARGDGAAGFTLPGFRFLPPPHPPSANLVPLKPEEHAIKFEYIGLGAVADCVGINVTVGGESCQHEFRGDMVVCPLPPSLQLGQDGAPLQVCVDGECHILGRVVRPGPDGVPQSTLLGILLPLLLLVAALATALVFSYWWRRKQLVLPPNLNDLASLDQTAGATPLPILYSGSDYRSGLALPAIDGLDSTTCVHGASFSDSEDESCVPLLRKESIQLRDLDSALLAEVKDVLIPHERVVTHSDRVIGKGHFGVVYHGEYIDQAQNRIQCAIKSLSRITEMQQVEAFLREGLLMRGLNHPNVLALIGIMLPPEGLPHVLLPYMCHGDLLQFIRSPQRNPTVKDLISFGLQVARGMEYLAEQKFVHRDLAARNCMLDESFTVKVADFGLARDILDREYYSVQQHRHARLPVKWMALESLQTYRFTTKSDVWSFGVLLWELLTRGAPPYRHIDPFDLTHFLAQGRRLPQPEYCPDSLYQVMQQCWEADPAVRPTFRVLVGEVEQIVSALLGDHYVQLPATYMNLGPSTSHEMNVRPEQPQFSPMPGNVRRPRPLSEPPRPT
T6 sequence (Q5S007 whole entry G2019S): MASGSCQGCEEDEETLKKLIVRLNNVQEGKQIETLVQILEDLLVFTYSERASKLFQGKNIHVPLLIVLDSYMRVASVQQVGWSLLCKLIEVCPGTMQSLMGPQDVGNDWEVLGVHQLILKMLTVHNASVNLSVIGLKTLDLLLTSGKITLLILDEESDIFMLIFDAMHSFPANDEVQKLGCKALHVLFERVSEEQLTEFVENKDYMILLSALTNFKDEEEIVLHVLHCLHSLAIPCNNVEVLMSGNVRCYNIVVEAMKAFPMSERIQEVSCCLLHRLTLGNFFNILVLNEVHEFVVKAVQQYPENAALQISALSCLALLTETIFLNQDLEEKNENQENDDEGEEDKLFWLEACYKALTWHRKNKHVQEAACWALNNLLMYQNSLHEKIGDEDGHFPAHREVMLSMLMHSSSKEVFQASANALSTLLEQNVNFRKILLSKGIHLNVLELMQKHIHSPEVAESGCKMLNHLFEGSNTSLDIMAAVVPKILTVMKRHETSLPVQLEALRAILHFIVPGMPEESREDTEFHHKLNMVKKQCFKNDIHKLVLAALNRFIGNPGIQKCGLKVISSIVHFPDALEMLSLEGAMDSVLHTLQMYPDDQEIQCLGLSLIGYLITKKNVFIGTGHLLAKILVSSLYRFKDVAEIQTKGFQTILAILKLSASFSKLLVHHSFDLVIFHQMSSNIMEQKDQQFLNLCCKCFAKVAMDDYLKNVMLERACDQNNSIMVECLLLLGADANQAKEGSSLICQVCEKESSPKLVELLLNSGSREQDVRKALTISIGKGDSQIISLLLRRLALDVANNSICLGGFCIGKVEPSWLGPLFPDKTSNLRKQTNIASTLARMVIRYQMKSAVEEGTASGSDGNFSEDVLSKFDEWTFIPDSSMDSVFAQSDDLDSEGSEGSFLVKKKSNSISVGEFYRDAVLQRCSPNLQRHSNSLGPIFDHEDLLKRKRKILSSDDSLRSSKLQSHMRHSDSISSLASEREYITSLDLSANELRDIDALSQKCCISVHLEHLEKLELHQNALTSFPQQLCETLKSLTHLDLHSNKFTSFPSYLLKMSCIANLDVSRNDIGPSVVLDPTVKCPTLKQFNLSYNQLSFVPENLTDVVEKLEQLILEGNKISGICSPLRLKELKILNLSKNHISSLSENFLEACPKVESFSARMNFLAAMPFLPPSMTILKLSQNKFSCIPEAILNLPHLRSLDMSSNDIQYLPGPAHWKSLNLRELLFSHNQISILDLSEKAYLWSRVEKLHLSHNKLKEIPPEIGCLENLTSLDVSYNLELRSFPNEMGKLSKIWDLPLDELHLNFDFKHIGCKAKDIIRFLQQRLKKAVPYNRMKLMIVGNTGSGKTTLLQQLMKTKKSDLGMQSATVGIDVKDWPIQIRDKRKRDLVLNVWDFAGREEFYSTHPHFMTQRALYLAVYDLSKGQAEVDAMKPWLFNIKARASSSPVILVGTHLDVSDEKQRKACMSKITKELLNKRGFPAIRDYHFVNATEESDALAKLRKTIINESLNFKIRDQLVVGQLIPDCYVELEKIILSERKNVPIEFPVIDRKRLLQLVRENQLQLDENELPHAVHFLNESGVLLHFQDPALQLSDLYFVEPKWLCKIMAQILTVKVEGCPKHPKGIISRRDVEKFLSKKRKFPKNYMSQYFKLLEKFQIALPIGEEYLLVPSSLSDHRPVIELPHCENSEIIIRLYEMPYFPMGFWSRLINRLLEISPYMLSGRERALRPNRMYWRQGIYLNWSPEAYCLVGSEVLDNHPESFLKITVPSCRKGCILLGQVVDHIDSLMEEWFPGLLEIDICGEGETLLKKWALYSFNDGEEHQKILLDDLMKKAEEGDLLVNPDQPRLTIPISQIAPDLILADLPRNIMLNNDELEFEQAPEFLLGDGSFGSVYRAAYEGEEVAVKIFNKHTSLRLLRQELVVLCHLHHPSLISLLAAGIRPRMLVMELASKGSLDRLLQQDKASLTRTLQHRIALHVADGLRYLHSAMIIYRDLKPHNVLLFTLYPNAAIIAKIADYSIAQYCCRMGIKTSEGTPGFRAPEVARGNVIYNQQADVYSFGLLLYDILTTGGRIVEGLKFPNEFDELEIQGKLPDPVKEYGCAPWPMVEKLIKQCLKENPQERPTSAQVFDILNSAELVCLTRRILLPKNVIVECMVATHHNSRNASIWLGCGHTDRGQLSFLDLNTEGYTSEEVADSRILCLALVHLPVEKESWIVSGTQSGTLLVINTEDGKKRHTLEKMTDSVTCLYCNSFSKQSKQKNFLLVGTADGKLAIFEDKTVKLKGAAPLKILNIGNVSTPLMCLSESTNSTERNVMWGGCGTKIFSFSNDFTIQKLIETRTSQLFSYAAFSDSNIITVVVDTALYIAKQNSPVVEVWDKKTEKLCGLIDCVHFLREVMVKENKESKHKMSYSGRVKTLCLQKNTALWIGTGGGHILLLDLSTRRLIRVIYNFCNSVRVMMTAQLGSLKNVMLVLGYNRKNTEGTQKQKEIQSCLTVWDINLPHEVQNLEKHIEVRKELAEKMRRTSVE

For `COc1ccc2c(c1OC)c(=O)n1c3ccc(O)cc3c3ccnc2c31` [MW01, 5-Hydroxy-10,11-dimethoxy-9H-benzo[c]indolo[3,2,1-ij][1,5]naphthyridin-9-one], the inhibition at 1 µM on AURKB (Aurora B) was 15%; on PLK3, 6%; on MAPK12 (p38 gamma) it was 8%; at EPHB1 it was -3%; at MST1R (RON) it was 22%; on LRRK2 G2019S FL, 87%. The inhibition at 1 µM on EPHA5 was -4%. Further, the inhibition at 10 µM at AURKB (Aurora B) was determined as 19%; on PLK3 it was 23%; at MAPK12 (p38 gamma), 11%; on EPHB1, 9%; on MST1R (RON), 39%; on LRRK2 G2019S FL it was 90%. At EPHA5, the inhibition at 10 µM came out at 7%.

Take `COc1ccc2cc3c(N)nn(C(=O)c4cccc(N(C)C)c4)c3nc2c1` [MW05, (3-Amino-7-methoxypyrazolo[3,4-b]quinolin-1-yl)-[3-(dimethylamino)phenyl]methanone]: the inhibition at 1 µM on AURKB (Aurora B) was 8%; at PLK3, 5%; on MAPK12 (p38 gamma) it was 4%; at EPHB1, -3%; on MST1R (RON) it was -1%; at LRRK2 G2019S FL, -1%. In addition, at EPHA5, the inhibition at 1 µM is -8%. Further, the inhibition at 10 µM at AURKB (Aurora B) is -6%; at PLK3, 12%; on MAPK12 (p38 gamma), 4%; on EPHB1, -6%; on MST1R (RON) it was -16%; at LRRK2 G2019S FL, 11%. At EPHA5, the inhibition at 10 µM was -16%.

(Values after patent publication EP4467141A1, “PYRAZOLO-QUINOLINES AS SELECTIVE INHIBITORS OF GENOTOXIC STRESS-INDUCED IKK/NF- KB PATHWAYS FOR CANCER THERAPY” (Max-Delbrück-Centrum für Molekulare Medizin in der …, priority 2023, dated 2024).)
